{
  "source": "patent US4136192A",
  "about": "“4-Hydroxy-3-nitro (cyano) coumarins” (Beecham Group Limited, priority 1975, dated 1979)",
  "key": {"PCA response": {"tested_on": "PCA response", "experiment": "Passive Cutaneous Anaphylaxis (rat PCA)", "format": "in vivo", "details": "iv, i.v. just before ovalbumin challenge, male Wistar rats", "method": "Serum containing heat labile homocytotropic antibody was raised in rats to crystallized ovalbumin XOA by the method of Mota (I. Mota, Immunology, 7, 681 (1964)) using Bordettela pertussis vaccine as adjuvant.\nPassive cutaneous anaphylaxis (PCA) was carried out by a method based on that of Ovary and Bier (A. Ovary and O. G. Bier, Proc. Soc. Exp. Biol. Med 81, 584, (1952)) as modified by Goose and Blair.\nMale Wistar rats of 250-300 g were given 0.1 ml of each of six twofold serial dilutions of pooled antiserum in 0.9% saline injected intradermally into separate sites on their shaved backs. Later (72 hr) the animals were challenged by intravenous injection of 0.3 ml of a 1% solution of ovalbumin in an isotonic solution of saline buffered with 0.5M, pH 7.2, Sorenson Buffer (PBS), mixed with 0.2 ml of a 5% solution of Pontamine Sky Blue (6BX C.I. 24410, Raymond A. Lamb, London) in isotonic saline. The rats were killed after 20 min and the diameter of the blue wheals at the antibody injection sites was measured on the outer surface of the skin. The starting dilution of the serum was adjusted so that there was no response, after challenge, at the injection site of the highest dilution and a maximum response at the lowest dilutions. Typically six twofold serial dilutions of the serum from 1/4 to 1/128 were used.\nCompounds were tested for their ability to reduce the diameter of the wheels at those intradermal sites which in control animals gave less than maximum response. Each dose of the compound was administered intravenously to six rats in isotonic saline, adjusted to pH7 with sodium bicarbonate if necessary (2ml/kg body weight) just before intravenous challenge with ovalbumin. Control groups of six animals were given the same volume of carrier fluid at the same time.\nThe results were calculated as follows. % inhibition of PCA=100 (1 - a/b) where a=the sum of the diameters of the wheals produced in the test animal at the sites of antibody dilutions as used in control groups and b=the mean sum of the diameters of the wheals produced in the control group of animals at those antibody sites where at least five out of six of the animals gave less than maximum response. A typical variation in the control group of animals was SEN±6%.\nThe dose of the compound required to inhibit the PCA response by 50% was obtained from the log dose-response curve."}, "[1]": {"tested_on": "slow reacting substance of anaphylaxis (SRS-A)", "experiment": "SRS-A antagonism on isolated guinea pig ileum", "design": "species or system guinea pig ileum (SRS-A from rat)", "details": "rat SRS-A", "description": "The compounds have been evaluated as direct antagonists of slow reacting substance of anaphylaxis (SRS-A) by assay using the isolated guinea pig ileum.\nSRS-A rat was obtained from the peritoneal cavity of the rat after passive peritoneal anaphylaxis by a method based on that of R. P. Orange, D. J. Stechschulte and K. F. Austen, J. Immunology, 105 1087 (1970) as described by B. A. Spicer, J. W. Ross and H. Smith, Clin. exp. Immunol. 1975, 21, 419. The sensitizing serum containing reaginic antibody was produced in rats as described by B. A. Spicer, et. al. ibid.\n2 ml of a 1 in 5 dilution of the sensitizing serum was injected by the peritoneal route into recipient rats and after 2 hours, 5 ml of tyrode solution containing 0.4 mg/ml ovalbumin (Sigma Grade III) and 50 μg/ml heparin was injected by the same route. Five minutes after challenge the rats were stunned and bled and the peritoneal fluids collected into polycarbonate tubes in ice. After centrifugation at 150 g for 5 minutes the supernatants were combined, heated in a boiling water bath for 5 minutes, cooled and stored at -20° C. The combined peritioneal fluids contained SRS-A and were used in the antagonism studies.\nThe SRS-A assays were carried out on isolated strips of guinea pig ileum in tyrode solution containing atropine 5 × 10^-7 M and mepyramine 10^-6 M as described by W. E. Brocklehurst, J. Physiology, 151, 416 (1960).\nThe activity of the antagonists was determined by their ability to reduce submaximal responses induced by SRS-A. The antagonists were added to a 4 ml bath in 0.1 ml volumes in aqueous solution half a minute before the addition of SRS-A and were present during induced contraction. Two or three concentrations of antagonists were used and the percentage inhibition of the SRS-A response plotted against the bath concentration of antagonist. The line of best fit was drawn and the concentration to cause 50% inhibition IC50 read graphically."}, "[2]": {"details": "read-out: Rat PCA: Dose given i.v. to effect a 50% inhibition of the PCA response"}, "[3]": {"details": "second results table, unit inferred, isolated guinea pig ileum, read-out: SRS-A antagonism on Guinea Pig ileum: Approximate concentration to give 50% inhibition of a less than maximal response to SRS-A"}, "[4]": {"details": "second results table, read-out: Rat PCA: Dose given i.v. to effect a 50% inhibition of PCA response"}, "[5]": {"details": "as first table, unit inferred, isolated guinea pig ileum, read-out: SRS-A antagonism on Guinea Pig Ileum: Approximate concentration to give inhibition of a than maximal response to SRS-A"}, "[6]": {"details": "isolated guinea pig ileum strips, tyrode with atropine and mepyramine, 50% inhibition per method, read-out: SRS-A antagonism on Guinea Pig Ileum: Approximate concentration to give inhibition of a than maximal response to SRS-A"}},
  "note": "Like-named read-outs stand apart in the source and are kept apart here.",
  "data": [
    {"smiles": "CCCc1c(O)c(C(C)=O)cc([N+](=O)[O-])c1OCCOc1ccc2c(O)c([N+](=O)[O-])c(=O)oc2c1", "note": "[Example 165, 7-[2-(4-Acetyl-3-hydroxy-6-nitro-2-n-propylphenoxy)ethoxy]-4-hydroxy-3-nitrocoumarin]", "values": [
      {"measurement": "ED50", "setting": "PCA response; [2]", "value": 1, "unit": "mg/kg"}
    ]},
    {"smiles": "CCCc1c(OCC(O)COc2ccc3c(O)c([N+](=O)[O-])c(=O)oc3c2)ccc(C(=O)CC)c1O", "note": "(stereo not drawn) [Example 149]", "values": [
      {"measurement": "ED50", "setting": "PCA response; [2]", "value": 2, "unit": "mg/kg"}
    ]},
    {"smiles": "N#CC1C(=O)c2ccc(OCCCOc3ccccc3)cc2C1=O", "note": "(stereo not drawn) [Example 188, 2-Cyano-5-(3-phenoxypropoxy)indan-1,3-dione]", "values": [
      {"measurement": "IC50", "setting": "[1]; [3]", "value": 1000, "unit": "nM"},
      {"measurement": "ED50", "setting": "PCA response; [4]", "value": "> 2", "unit": "mg/kg"}
    ]},
    {"smiles": "O=c1oc2cc(OCCc3ccc(F)cc3)ccc2c(O)c1[N+](=O)[O-]", "note": "[Example 117]", "values": [
      {"measurement": "ED50", "setting": "PCA response; [2]", "value": 1, "unit": "mg/kg"}
    ]},
    {"smiles": "CCCc1cc(F)ccc1OCC(O)COc1ccc2c(O)c([N+](=O)[O-])c(=O)oc2c1", "note": "(stereo not drawn) [Example 164, 7-(3-[4-Fluoro-2-hydroxypropoxy)-4-hydroxy-3-nitro-coumarin]", "values": [
      {"measurement": "IC50", "setting": "[1]; [5]", "value": 100, "unit": "nM"},
      {"measurement": "ED50", "setting": "PCA response; [2]", "value": 1, "unit": "mg/kg"}
    ]},
    {"smiles": "Cc1ccccc1OCCCOc1ccc2c(O)c([N+](=O)[O-])c(=O)oc2c1", "note": "[Example 155, 4-Hydroxy-7-(3-[2-methylphenoxy]propoxy)-3-nitrocoumarin]", "values": [
      {"measurement": "IC50", "setting": "[1]; [6]", "value": 100, "unit": "nM"},
      {"measurement": "ED50", "setting": "PCA response; [2]", "value": "1 to 2", "unit": "mg/kg"}
    ]},
    {"smiles": "CCc1cc(C(C)=O)c(O)cc1OCC(O)COc1ccc2c(O)c([N+](=O)[O-])c(=O)oc2c1", "note": "(stereo not drawn) [Example 145, 7-(3-[4-Acetyl-2-ethyl-5-hydroxy-phenoxy]-2-hydroxy-propoxy)-4-hydroxy-3-nitrocoumarin]", "values": [
      {"measurement": "ED50", "setting": "PCA response; [2]", "value": 2, "unit": "mg/kg"}
    ]},
    {"smiles": "CCCc1c(OCC(O)COc2ccc3c(O)c([N+](=O)[O-])c(=O)oc3c2CCC)ccc(C(C)=O)c1O", "note": "(stereo not drawn) [Example 148, 7-(3-[4-Acetyl-3-hydroxy-2-n-propyl-phenoxy]-2-hydroxy-propoxy)-4-hydroxy-3-nitro-8-n-propyl-coumarin]", "values": [
      {"measurement": "IC50", "setting": "[1]; [6]", "value": 100, "unit": "nM"},
      {"measurement": "ED50", "setting": "PCA response; [2]", "value": "< 1", "unit": "mg/kg"}
    ]},
    {"smiles": "CCCc1c(O)c(C(C)=O)cc([N+](=O)[O-])c1OCC(O)COc1ccc2c(O)c([N+](=O)[O-])c(=O)oc2c1C", "note": "(stereo not drawn) [Example 166, 7-[3-(4-Acetyl-3-hydroxy-6-nitro-2-n-propylphenoxy)-2-hydroxypropoxy]-4-hydroxy-8-methyl-3-nitrocoumarin]", "values": [
      {"measurement": "IC50", "setting": "[1]; [5]", "value": 100, "unit": "nM"},
      {"measurement": "ED50", "setting": "PCA response; [2]", "value": "< 1", "unit": "mg/kg"}
    ]},
    {"smiles": "O=C1c2ccc(OCCCOc3ccccc3)cc2C(=O)C1[N+](=O)[O-]", "note": "(stereo not drawn) [Example 182, 2-Nitro-5-(3-phenoxypropoxy)indan-1,3-dione]", "values": [
      {"measurement": "IC50", "setting": "[1]; [3]", "value": 100, "unit": "nM"},
      {"measurement": "ED50", "setting": "PCA response; [4]", "value": "< 1", "unit": "mg/kg"}
    ]},
    {"smiles": "CCCc1cc(C(C)=O)ccc1OCC(O)COc1ccc2c(O)c([N+](=O)[O-])c(=O)oc2c1", "note": "(stereo not drawn) [Example 142, 7-(3-[4-Acetyl-2-n-propylphenoxy]-2-hydroxypropoxy)-4-hydroxy-3-nitrocoumarin]", "values": [
      {"measurement": "ED50", "setting": "PCA response; [2]", "value": "< 1", "unit": "mg/kg"}
    ]},
    {"smiles": "O=c1oc2cc(OCCCCCCOc3ccccc3)ccc2c(O)c1[N+](=O)[O-]", "note": "[Example 154, 4-Hydroxy-3-nitro-7-(6-phenoxyhexoxy) coumarin]", "values": [
      {"measurement": "IC50", "setting": "[1]; [6]", "value": 10000, "unit": "nM"},
      {"measurement": "ED50", "setting": "PCA response; [2]", "value": "1 to 2", "unit": "mg/kg"}
    ]},
    {"smiles": "O=C1c2ccc(OCCCc3ccccc3)cc2C(=O)C1[N+](=O)[O-]", "note": "(stereo not drawn) [Example 183, 2-Nitro-5-(3-phenylpropoxy)indan-1,3-dione]", "values": [
      {"measurement": "ED50", "setting": "PCA response; [4]", "value": "< 1", "unit": "mg/kg"}
    ]},
    {"smiles": "CCCc1c(OCCOc2ccc3c(O)c([N+](=O)[O-])c(=O)oc3c2)ccc(C(C)=O)c1O", "note": "[Example 127, 7-(2-[4-Acetyl-3-hydroxy-2-n-propylphenoxy]ethoxy)-4-hydroxy-3-nitrocoumarin]", "values": [
      {"measurement": "ED50", "setting": "PCA response; [2]", "value": "~2", "unit": "mg/kg"}
    ]},
    {"smiles": "N#Cc1c(O)c2ccc(OCCCOc3ccccc3)cc2oc1=O", "note": "[Example 204, 3-Cyano-4-hydroxy-7-(3-phenoxypropoxy) coumarin]", "values": [
      {"measurement": "IC50", "setting": "[1]; [3]", "value": 1000, "unit": "nM"},
      {"measurement": "ED50", "setting": "PCA response; [4]", "value": 2, "unit": "mg/kg"}
    ]},
    {"smiles": "CCCc1c(OCC(O)COc2ccc3c(O)c([N+](=O)[O-])c(=O)oc3c2C)ccc(C(C)=O)c1O", "note": "(stereo not drawn) [Example 147, 7-(3-[4-Acetyl-3-hydroxy-2-n-propyl-phenoxy]-2-hydroxy-propoxy)-4-hydroxy-8-methyl-3-nitro-coumarin]", "values": [
      {"measurement": "IC50", "setting": "[1]; [5]", "value": 10, "unit": "nM"},
      {"measurement": "ED50", "setting": "PCA response; [2]", "value": "< 2", "unit": "mg/kg"}
    ]},
    {"smiles": "Cc1cc(C)c(C)c(OCCCOc2ccc3c(c2)C(=O)C([N+](=O)[O-])C3=O)c1", "note": "(stereo not drawn) [Example 184, 2-Nitro-5-[3-(2,3,5-trimethylphenoxy)propoxy]indan-1,3-dione]", "values": [
      {"measurement": "IC50", "setting": "[1]; [3]", "value": 1000, "unit": "nM"},
      {"measurement": "ED50", "setting": "PCA response; [4]", "value": 1, "unit": "mg/kg"}
    ]}
  ]
}
